Usually EC50 stands for the concentration needed to bring the measured effect to its halfway point. As usually defined, the CC50 is the concentration that lowers cell viability or growth by half.

Here are results for six compounds from PMC9937549 (Frontiers in tropical diseases, 2023).

The test system of data set [1] is L. donovani intracellular amastigotes infecting THP-1 cells. As to the kind of experiment: Intracellular amastigote assay. The data set is classed as cell-based, Leishmania donovani. Particulars: for inhibition of parasite growth (primary screen): single point 10 μM, L. donovani amastigotes in THP-1; for EC50: read-out: Intracellular Amastigote EC50, Leishmania donovani, THP-1 host, 72 h.

Another data set in a line: Plasma protein binding. The data set is classed as in vitro ADME. Particulars: racemate, rapid equilibrium dialysis. Background: In equilibrium dialysis only unbound substance equilibrates across the membrane.
The next data set in a line: Whole blood stability. The data set is classed as in vitro ADME. Particulars: criterion: no % reduction over 120 min; racemate.
Data set [2] deals with L. donovani intracellular amastigotes infecting B10R cells. As to the kind of experiment: Intracellular amastigote assay. The data set is classed as cell-based. The conditions noted are these: read-out: L. donovani EC50; intracellular amastigotes infecting B10R cells (UCSD assay), average of two biological replicates.
Another data set can be described thus: Property forecast index. The data set is classed as physicochemical. Particulars: ChromLogD7.4 + Aromatic rings.
The test system of another data set is HepG2 cells. In words: HepG2 cytotoxicity. The data set is classed as cell-based.
Data set [3] concerns L. donovani intracellular amastigotes infecting THP-1 macrophages. In words: GSK intramacrophage L. donovani assay. The data set is classed as cell-based, Leishmania donovani. Particulars: read-out: LD AMMAC EC50; growth inhibition of L. donovani intracellular amastigotes infecting THP-1 macrophages (GSK).
The format of data set [4] is in vitro ADME. Particulars: microsomes.
Data set [5] can be described thus: Artificial membrane permeability. The data set is classed as in vitro ADME. Particulars: pH 7.4.
A further data set relates to THP-1 cells. As to the kind of experiment: Host THP-1 cell cytotoxicity. The data set is classed as cell-based, human. The conditions noted are these: for cytotoxicity to the host THP-1 cells (GI): primary screen, single point 10 μM; for CC50: read-out: Host (THP-1) cell CC50, UCSF assay.
Data set [6] concerns L. major intracellular amastigotes. As to the kind of experiment: Intracellular amastigote assay. The data set is classed as cell-based. Particulars: read-out: Intracellular Amastigote EC50; Leishmania major, THP-1 host, 72 h.
A further data set deals with human serum albumin (Homo sapiens, UniProt P02768). As to the kind of experiment: Human serum albumin. The data set is classed as in vitro ADME. Particulars: immobilized HSA column.
Another data set is described as follows: FaSSIF solubility. The data set is classed as physicochemical. Particulars: racemate.
For the next data set, the system named is host THP-1 macrophages. In words: GSK LD MAC host cell toxicity readout of inMac assay. Particulars: read-out: LD MAC EC50; cytotoxicity against host THP-1 macrophages (GSK). The data set is classed as cell-based.
Data set [7] in a line: Kinetic aqueous solubility by CLND. The data set is classed as physicochemical. Particulars: high-throughput CLND.
The next data set has as its system L. major promastigotes. In words: Promastigote assay. The data set is classed as cell-based. The conditions noted are these: read-out: Extracellular promastigote EC50; Leishmania major, 72 h.
For data set [8], the system named is L. donovani promastigotes. As to the kind of experiment: Promastigote assay. The data set is classed as cell-based. The conditions noted are these: read-out: Extracellular promastigote EC50; Leishmania donovani, 72 h.
In the next data set the test system is host B10R cells. The data set is classed as cell-based.
The test system of data set [9] is intramacrophage Leishmania. Particulars: read-out: intramacrophage EC50; cited from earlier work.
The subject of a further data set is host macrophage. In words: Host cell cytotoxicity in the same assay. The data set is classed as cell-based. The conditions noted are these: abstract.
The test system of data set [10] is intracellular parasites of Leishmania donovani. In words: Antileishmanial potency against visceral leishmaniasis. The data set is classed as cell-based. Particulars: read-out: EC50 (visceral leishmaniasis).

Values after ≈ are worked out from the molar mass of the structure shown. Bounds are passed on as bounds.

Sequence of human serum albumin (P02768 25-609): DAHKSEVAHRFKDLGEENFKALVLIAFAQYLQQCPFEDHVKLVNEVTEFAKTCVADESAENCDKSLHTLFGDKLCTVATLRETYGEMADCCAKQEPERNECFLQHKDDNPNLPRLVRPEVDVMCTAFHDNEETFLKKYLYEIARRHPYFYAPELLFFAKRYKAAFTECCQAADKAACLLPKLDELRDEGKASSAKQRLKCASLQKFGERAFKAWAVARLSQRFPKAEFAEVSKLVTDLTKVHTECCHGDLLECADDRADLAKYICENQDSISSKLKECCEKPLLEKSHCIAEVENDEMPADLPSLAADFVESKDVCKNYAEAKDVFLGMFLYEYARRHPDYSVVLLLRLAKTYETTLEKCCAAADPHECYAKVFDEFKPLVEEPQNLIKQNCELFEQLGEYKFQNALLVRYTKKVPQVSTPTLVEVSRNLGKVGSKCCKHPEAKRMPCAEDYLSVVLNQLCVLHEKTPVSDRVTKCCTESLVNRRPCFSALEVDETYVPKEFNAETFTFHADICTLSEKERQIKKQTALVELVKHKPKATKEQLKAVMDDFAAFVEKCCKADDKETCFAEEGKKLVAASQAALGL

In the case of `COc1ccc(N2C(=O)c3[nH]nc(CC(C)C)c3C2c2ccc(C)cc2)cc1` (stereo not shown) [CMLD007430], in data set [1], the “inhibition of parasite growth (primary screen)” value (from here on “inhibition of parasite growth”) was determined as 0%.

As for `COc1ccc(N2C(=O)c3[nH]nc(CC(C)C)c3C2c2ccc(F)cc2)cc1` (stereo not shown) [Compound 1], the Plasma protein binding in “Plasma protein binding” is 97.5%. In addition, in the data set “Whole blood stability”, the Whole blood stability entry is on record as “Pass”. Also, the EC50 in data set [2] was 0.82 µM; with HepG2 cells, 63.1 µM; in data set [3], 2.5 µM; in data set [6] it was 1.3 µM; in the data set with host THP-1 macrophages, 15.8 µM; in data set [1], 2.5 µM. Also, the 50% effective concentration (EC50) turned out to be 4.4 µM with L. major promastigotes and 2 µM in data set [8]. Moreover, the PFI in the data set “Property forecast index” was determined as 8.4. For the same compound, the “Microsomal stability (mouse) Clint” value in data set [4] is recorded as under 3.4 mL/min/g. Besides, the “Microsomal stability (mouse) t1/2” value in data set [4] is recorded as over 20 min. The same compound registered an AMP in [5] of 345 nm/s. Also, in the data set on THP-1 cells, the “cytotoxicity to the host THP-1 cells (GI)” value was under 13 % GI. In addition, the CC50 in the data set with THP-1 cells and with host B10R cells was over 20 µM throughout. For the same compound, the “HSA Binding” value on human serum albumin turned out to be 96.4%. Besides, the FaSSIF solubility in the data set “FaSSIF solubility” was determined as 130 µg/mL. Also, the “inhibition of parasite growth” value in [1] is over 99%. For the same compound, the “Solubility (CLND)” value in data set [7] was determined as 107 µM (≈ 40.6 µg/mL).

Regarding `C[C@H]1CN(c2n[nH]c3nc(N[C@H]4CC[C@H](NS(=O)(=O)CCC(F)(F)F)CC4)ncc23)CCO1` [GSK3186899], the concentration for a half-maximal effect (EC50) in data set [9] was 1.4 µM.

With `COc1ccc(N2C(=O)c3[nH]nc(CC(C)C)c3C2c2ccccc2)cc1` (stereo not shown) [Compound 2], the PFI in “Property forecast index” is given as 8.4. Besides, the EC50 in the data set on HepG2 cells amounted to 79.4 µM; in data set [3], 3.2 µM; in data set [6], 1.7 µM; in the data set on host THP-1 macrophages it was 31.6 µM; in data set [1], 3.7 µM; in the data set with L. major promastigotes it was 4.2 µM. In data set [8], the EC50 stood at 2.4 µM. In data set [5], the AMP worked out at 370 nm/s. Further, the “cytotoxicity to the host THP-1 cells (GI)” value with THP-1 cells was under 13 % GI. Also, the half-maximal cytotoxic concentration (CC50) with THP-1 cells was over 20 µM. In addition, the “HSA Binding” value on human serum albumin is given as 95.8%. The “inhibition of parasite growth” value in data set [1] was over 99%. Besides, the “Solubility (CLND)” value in data set [7] worked out at 90 µM (≈ 32.5 µg/mL).

Take `C[C@@H]1[C@H](O)[C@@H](C)/C=C/C=C/C=C/C=C/C=C/C=C/C=C/[C@H](O[C@@H]2O[C@H](C)[C@@H](O)[C@H](N)[C@@H]2O)C[C@@H]2O[C@](O)(C[C@@H](O)C[C@@H](O)[C@H](O)CC[C@@H](O)C[C@@H](O)CC(=O)O[C@H]1C)C[C@H](O)[C@H]2C(=O)O` [amphotericin B]: the “concentration cytotoxic to the host cell” value with host macrophage is 5.0 µM. For the same compound, in data set [10], the concentration giving a half-maximal response (EC50) was determined as 0.2 µM.

`O=C(Nc1ccc(F)c(-c2ccn3c(N4CCOCC4)cnc3n2)c1)N1CCCC1` [GSK3494245]: the concentration for a half-maximal effect (EC50) in [9] was 1.6 µM.
